Laboratory results taken from PMC3639963, “A New Class of Small Molecule Inhibitor of BMP Signaling” (PLoS ONE, 2013).

Tests used:
Test in all cases: Nanosyn kinase profiling
Assay type in all cases: biochemical
Details in all cases: read-out: Percentage inhibition; for inhibition at 0.1 µM: 0.1 µM inhibitor; for inhibition at 1 µM: 1 µM inhibitor
P70S6KB1 = molecular target: T1, P70S6KB1 (Homo sapiens, UniProt P23443)
T1 construct: purchased Nanosyn (enzymatic panel); SGC in-house recombinant human kinases (DSF panel); Invitrogen (ALK1-6)
Outline: (§1)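 Percent inhibition of each kinase was measured with the inhibitor at 0.1 µM and at 1 µM, as part of a 200-kinase human selectivity panel.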

MKNK1 = molecular target: T2, MKNK1 (Homo sapiens, UniProt Q9BUB5)
T2 construct: purchased Nanosyn (enzymatic panel); SGC in-house recombinant human kinases (DSF panel); Invitrogen (ALK1-6)
Outline: as §1

FES = molecular target: T3, FES (Homo sapiens, UniProt P07332)
T3 construct: purchased Nanosyn (enzymatic panel); SGC in-house recombinant human kinases (DSF panel); Invitrogen (ALK1-6)
Outline: as §1

PKCι = molecular target: T4, PKCι (Homo sapiens, UniProt P41743)
T4 construct: purchased Nanosyn (enzymatic panel); SGC in-house recombinant human kinases (DSF panel); Invitrogen (ALK1-6)
T4 sequence (P41743 1-596): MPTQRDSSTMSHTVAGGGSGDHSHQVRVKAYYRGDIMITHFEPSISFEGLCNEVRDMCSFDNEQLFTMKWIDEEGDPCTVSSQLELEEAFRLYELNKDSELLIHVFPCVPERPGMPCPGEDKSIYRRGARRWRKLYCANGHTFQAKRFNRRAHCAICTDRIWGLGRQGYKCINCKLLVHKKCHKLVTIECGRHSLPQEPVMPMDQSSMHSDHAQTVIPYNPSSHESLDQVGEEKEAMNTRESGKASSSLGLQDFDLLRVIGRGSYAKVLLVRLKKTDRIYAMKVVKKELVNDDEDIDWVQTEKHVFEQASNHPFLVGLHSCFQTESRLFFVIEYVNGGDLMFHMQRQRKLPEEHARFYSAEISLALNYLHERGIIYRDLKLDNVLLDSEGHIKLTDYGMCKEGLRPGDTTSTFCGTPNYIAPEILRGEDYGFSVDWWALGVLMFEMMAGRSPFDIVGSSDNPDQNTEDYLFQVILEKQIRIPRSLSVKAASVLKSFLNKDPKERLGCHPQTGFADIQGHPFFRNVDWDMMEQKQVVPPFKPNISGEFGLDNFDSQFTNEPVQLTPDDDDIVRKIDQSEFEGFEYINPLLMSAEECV
Outline: as §1

EPHB2 = molecular target: T5, EPHB2 (Homo sapiens, UniProt P29323)
T5 construct: purchased Nanosyn (enzymatic panel); SGC in-house recombinant human kinases (DSF panel); Invitrogen (ALK1-6)
T5 sequence (P29323 19-1055): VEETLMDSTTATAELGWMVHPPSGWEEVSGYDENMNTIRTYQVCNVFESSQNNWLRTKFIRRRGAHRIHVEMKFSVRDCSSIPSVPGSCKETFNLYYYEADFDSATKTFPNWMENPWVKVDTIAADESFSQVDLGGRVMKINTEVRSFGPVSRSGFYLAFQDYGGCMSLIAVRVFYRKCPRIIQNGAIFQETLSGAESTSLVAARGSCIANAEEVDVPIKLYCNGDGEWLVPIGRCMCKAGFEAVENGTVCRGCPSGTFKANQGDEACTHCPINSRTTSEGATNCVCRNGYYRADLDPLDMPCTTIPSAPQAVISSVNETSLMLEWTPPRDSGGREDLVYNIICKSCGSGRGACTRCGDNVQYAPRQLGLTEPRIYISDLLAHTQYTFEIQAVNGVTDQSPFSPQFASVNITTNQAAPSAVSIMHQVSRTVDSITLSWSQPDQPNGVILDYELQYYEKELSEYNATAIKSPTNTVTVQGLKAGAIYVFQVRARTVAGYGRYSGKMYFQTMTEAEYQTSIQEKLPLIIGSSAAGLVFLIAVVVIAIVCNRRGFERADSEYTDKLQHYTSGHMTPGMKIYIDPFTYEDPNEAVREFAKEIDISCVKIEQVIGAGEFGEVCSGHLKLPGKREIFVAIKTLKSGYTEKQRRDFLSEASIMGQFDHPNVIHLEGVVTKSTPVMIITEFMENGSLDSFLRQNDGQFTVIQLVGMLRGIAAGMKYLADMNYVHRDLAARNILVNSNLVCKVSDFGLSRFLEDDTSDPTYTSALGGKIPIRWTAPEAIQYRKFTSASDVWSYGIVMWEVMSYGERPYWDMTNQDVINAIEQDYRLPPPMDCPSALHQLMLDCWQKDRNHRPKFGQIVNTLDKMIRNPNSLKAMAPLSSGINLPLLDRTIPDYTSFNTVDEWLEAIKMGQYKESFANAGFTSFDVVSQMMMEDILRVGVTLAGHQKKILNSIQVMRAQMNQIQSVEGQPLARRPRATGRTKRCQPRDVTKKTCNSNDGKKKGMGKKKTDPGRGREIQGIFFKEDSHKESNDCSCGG
Outline: as §1

MST4 = molecular target: T6, MST4 (Homo sapiens, UniProt Q9P289)
T6 construct: purchased Nanosyn (enzymatic panel); SGC in-house recombinant human kinases (DSF panel); Invitrogen (ALK1-6)
Outline: as §1

BLK = molecular target: T7, BLK (Homo sapiens, UniProt P51451)
T7 construct: purchased Nanosyn (enzymatic panel); SGC in-house recombinant human kinases (DSF panel); Invitrogen (ALK1-6)
Outline: as §1

YES = molecular target: T8, YES (Homo sapiens, UniProt P07947)
T8 construct: purchased Nanosyn (enzymatic panel); SGC in-house recombinant human kinases (DSF panel); Invitrogen (ALK1-6)
Outline: as §1

CDK1/cycB = molecular target: T9, CDK1/cycB (Homo sapiens, UniProt P06493)
T9 construct: purchased Nanosyn (enzymatic panel); SGC in-house recombinant human kinases (DSF panel); Invitrogen (ALK1-6)
Outline: as §1

CK1γ2 = molecular target: T10, CK1γ2 (Homo sapiens, UniProt P78368)
T10 construct: purchased Nanosyn (enzymatic panel); SGC in-house recombinant human kinases (DSF panel); Invitrogen (ALK1-6)
Outline: as §1

cRAF = molecular target: T11, cRAF (Homo sapiens, UniProt P04049)
T11 construct: purchased Nanosyn (enzymatic panel); SGC in-house recombinant human kinases (DSF panel); Invitrogen (ALK1-6)
Outline: as §1

AKT1 = molecular target: T12, AKT1 (Homo sapiens, UniProt P31749)
T12 construct: purchased Nanosyn (enzymatic panel); SGC in-house recombinant human kinases (DSF panel); Invitrogen (ALK1-6)
Outline: as §1

ROS = molecular target: T13, ROS (Homo sapiens, UniProt P08922)
T13 construct: purchased Nanosyn (enzymatic panel); SGC in-house recombinant human kinases (DSF panel); Invitrogen (ALK1-6)
Outline: as §1

CAMK1δ = molecular target: T14, CAMK1δ (Homo sapiens, UniProt Q8IU85)
T14 construct: purchased Nanosyn (enzymatic panel); SGC in-house recombinant human kinases (DSF panel); Invitrogen (ALK1-6)
Outline: as §1

T14 sequence (Q8IU85 whole entry): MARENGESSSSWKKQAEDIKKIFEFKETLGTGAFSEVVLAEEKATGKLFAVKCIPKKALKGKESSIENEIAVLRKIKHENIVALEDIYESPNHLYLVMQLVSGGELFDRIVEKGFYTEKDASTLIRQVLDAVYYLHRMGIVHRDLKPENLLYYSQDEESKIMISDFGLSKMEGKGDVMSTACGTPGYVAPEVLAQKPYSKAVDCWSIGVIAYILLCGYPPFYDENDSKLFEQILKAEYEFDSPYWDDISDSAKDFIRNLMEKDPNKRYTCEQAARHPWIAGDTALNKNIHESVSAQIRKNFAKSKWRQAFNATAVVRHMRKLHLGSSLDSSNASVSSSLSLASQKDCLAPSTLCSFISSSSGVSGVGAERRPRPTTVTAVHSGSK
T11 sequence (P04049 whole entry): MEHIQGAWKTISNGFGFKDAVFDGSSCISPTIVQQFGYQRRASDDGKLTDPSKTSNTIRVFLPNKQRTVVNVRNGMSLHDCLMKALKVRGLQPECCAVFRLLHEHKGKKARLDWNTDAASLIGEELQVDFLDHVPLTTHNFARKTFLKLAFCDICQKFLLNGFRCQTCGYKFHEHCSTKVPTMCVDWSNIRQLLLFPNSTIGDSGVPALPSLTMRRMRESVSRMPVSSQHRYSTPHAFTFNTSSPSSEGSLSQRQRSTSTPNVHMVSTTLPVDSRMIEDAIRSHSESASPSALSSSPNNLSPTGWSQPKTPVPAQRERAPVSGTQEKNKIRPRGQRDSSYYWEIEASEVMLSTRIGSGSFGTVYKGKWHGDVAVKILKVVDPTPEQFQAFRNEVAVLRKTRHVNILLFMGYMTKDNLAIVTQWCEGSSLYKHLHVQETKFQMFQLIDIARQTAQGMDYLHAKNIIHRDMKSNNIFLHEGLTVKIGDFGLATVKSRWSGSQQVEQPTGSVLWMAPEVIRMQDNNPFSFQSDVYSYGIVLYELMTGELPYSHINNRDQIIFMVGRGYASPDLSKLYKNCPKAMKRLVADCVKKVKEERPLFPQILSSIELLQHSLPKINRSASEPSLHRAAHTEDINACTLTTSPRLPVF
T8 sequence (P07947 whole entry): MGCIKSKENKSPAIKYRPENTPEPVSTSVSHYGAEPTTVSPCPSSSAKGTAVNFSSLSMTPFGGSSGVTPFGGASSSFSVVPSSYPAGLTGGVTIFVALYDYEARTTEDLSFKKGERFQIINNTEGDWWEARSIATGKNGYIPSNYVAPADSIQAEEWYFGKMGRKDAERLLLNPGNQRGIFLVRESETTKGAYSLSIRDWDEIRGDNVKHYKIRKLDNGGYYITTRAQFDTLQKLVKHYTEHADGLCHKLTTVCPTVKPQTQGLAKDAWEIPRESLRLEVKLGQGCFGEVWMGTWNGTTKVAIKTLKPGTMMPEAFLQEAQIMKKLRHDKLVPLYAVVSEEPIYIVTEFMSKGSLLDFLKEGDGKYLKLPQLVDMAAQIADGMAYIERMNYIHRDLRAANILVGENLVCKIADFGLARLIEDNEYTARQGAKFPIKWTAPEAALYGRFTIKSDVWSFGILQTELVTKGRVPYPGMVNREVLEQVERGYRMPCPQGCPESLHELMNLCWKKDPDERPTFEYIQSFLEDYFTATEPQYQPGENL
T2 sequence (Q9BUB5 whole entry): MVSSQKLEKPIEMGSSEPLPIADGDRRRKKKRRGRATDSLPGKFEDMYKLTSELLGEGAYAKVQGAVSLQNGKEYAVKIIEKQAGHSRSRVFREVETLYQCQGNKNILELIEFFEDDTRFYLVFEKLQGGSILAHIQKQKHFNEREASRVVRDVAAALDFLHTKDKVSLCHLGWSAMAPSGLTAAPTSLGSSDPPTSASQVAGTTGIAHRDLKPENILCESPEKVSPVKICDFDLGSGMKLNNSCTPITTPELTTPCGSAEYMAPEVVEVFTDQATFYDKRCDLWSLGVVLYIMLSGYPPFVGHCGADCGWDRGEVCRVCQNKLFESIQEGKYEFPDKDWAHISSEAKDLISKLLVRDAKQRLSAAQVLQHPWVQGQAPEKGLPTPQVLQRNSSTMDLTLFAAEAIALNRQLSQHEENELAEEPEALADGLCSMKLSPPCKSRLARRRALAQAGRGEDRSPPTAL
T6 sequence (Q9P289 whole entry): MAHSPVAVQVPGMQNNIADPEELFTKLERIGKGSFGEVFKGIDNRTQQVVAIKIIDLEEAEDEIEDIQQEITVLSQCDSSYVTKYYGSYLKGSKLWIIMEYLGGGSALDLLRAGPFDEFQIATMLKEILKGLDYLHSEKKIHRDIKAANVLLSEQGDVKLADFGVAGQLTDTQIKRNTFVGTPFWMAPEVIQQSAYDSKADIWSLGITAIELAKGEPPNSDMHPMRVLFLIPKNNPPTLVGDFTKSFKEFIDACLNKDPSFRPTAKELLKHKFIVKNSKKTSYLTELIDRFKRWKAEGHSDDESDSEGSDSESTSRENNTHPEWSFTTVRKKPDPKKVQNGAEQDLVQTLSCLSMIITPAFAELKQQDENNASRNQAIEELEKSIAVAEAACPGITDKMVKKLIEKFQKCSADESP
T9 sequence (P06493 whole entry): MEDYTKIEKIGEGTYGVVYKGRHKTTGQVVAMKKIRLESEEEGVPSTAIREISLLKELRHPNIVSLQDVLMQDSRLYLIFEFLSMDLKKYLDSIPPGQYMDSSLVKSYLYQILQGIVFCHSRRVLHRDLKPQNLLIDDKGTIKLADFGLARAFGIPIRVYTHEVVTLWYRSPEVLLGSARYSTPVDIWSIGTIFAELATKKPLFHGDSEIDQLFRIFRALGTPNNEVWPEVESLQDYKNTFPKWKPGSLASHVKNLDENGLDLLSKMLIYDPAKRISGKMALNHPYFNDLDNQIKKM
T9 sequence (P14635 whole entry partner): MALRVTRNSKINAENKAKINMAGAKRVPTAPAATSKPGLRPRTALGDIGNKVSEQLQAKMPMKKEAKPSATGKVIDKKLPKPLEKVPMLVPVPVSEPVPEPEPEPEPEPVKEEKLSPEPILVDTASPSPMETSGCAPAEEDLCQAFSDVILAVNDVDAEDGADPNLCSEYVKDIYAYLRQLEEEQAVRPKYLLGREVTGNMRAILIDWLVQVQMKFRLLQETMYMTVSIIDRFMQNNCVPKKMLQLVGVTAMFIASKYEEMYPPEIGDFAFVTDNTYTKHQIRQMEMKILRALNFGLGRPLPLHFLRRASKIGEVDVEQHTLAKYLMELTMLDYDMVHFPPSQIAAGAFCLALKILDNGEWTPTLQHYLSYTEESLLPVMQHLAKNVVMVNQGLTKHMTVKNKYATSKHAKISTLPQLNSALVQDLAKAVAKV
T12 sequence (P31749 whole entry): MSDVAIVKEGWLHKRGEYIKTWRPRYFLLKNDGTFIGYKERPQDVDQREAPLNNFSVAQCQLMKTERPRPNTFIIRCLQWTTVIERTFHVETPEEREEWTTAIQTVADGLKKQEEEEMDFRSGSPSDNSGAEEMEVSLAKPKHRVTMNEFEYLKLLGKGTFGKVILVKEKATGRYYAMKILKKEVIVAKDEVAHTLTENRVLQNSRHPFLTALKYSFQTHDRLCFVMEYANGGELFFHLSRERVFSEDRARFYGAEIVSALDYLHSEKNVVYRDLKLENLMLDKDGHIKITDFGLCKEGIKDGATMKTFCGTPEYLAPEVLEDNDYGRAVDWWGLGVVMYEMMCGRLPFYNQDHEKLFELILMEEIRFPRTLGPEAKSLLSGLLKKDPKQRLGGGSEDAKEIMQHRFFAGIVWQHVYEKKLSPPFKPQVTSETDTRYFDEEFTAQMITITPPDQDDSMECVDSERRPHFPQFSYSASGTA
T3 sequence (P07332 whole entry): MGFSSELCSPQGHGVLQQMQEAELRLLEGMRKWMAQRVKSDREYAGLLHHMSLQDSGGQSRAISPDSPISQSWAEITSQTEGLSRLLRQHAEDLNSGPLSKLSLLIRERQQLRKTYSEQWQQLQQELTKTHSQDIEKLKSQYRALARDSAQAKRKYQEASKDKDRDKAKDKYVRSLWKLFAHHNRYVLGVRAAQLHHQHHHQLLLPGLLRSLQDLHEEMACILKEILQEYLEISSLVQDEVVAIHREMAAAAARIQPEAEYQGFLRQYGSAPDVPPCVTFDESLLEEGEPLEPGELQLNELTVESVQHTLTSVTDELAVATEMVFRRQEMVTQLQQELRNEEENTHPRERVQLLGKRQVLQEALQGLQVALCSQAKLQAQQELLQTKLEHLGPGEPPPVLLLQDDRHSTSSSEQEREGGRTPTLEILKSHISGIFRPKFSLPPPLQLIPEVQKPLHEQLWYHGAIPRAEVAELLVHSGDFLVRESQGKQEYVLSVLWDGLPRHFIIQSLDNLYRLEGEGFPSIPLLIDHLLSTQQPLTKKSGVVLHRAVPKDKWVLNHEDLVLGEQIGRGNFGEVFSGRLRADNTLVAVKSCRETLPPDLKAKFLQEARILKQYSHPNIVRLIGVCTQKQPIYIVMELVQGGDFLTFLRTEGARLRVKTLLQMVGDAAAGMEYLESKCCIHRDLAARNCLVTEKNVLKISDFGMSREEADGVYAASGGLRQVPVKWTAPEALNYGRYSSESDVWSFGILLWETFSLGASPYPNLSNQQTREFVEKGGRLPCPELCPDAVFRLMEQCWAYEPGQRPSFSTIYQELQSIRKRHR
T7 sequence (P51451 whole entry): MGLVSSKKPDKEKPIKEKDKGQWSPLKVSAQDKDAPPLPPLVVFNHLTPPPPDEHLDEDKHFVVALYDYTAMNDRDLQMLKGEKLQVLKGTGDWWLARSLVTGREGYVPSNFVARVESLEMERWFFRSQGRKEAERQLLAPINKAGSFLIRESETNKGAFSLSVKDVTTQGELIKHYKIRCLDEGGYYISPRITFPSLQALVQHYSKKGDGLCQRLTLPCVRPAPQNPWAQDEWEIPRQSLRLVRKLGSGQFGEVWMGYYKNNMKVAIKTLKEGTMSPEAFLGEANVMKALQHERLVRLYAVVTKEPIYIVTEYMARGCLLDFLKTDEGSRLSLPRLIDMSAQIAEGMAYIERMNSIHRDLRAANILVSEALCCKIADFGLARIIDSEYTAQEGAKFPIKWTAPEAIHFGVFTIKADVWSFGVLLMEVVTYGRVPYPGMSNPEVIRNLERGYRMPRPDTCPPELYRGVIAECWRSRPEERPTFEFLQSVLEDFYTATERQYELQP

SMILES | inhibition at 0.1 µM (P70S6KB1) [%] | inhibition at 1 µM (P70S6KB1) [%] | inhibition at 0.1 µM (MKNK1) [%] | inhibition at 1 µM (MKNK1) [%] | inhibition at 0.1 µM (FES) [%] | inhibition at 1 µM (FES) [%] | inhibition at 0.1 µM (PKCι) [%] | inhibition at 1 µM (PKCι) [%] | inhibition at 0.1 µM (EPHB2) [%] | inhibition at 1 µM (EPHB2) [%] | inhibition at 0.1 µM (MST4) [%] | inhibition at 1 µM (MST4) [%] | inhibition at 0.1 µM (BLK) [%] | inhibition at 1 µM (BLK) [%] | inhibition at 0.1 µM (YES) [%] | inhibition at 1 µM (YES) [%] | inhibition at 0.1 µM (CDK1/cycB) [%] | inhibition at 1 µM (CDK1/cycB) [%] | inhibition at 0.1 µM (CK1γ2) [%] | inhibition at 1 µM (CK1γ2) [%] | also measured
COc1cc(-c2cc(-c3cccc(O)c3)cnc2N)cc(OC)c1OC [K02288, 3-[6-amino-5-(3,4,5-trimethoxy-phenyl)-pyridin-3-yl]-phenol] | -2 | -1 | 0.7 | 1.3 | -1 | -1 | 0.3 | 1.6 | 0 | 21 | 0.4 | 0 | 3.2 | 27 | 4.9 | 34 | 1 | 1.5 | -1 | 5.5 | inhibition at 0.1 µM (cRAF): -5%; inhibition at 1 µM (cRAF): -8%; inhibition at 0.1 µM (AKT1): -2%; inhibition at 1 µM (AKT1): -1%; inhibition at 0.1 µM (ROS): 1.8%; inhibition at 1 µM (ROS): 6.8%; inhibition at 0.1 µM (CAMK1δ): -2%; inhibition at 1 µM (CAMK1δ): -1%
c1ccc2c(-c3cnn4cc(-c5ccc(N6CCNCC6)cc5)cnc34)ccnc2c1 [LDN-193189] | 1 | 0.6 | 7.1 | 37 | 2.2 | 2.4 | 1.4 | 1.5 | 8.4 | 24 | -1 | -5 | 3.9 | 24 | 12 | 50 | 0.5 | 5 | 1.6 | 3.9 | inhibition at 0.1 µM (cRAF): 0.6%; inhibition at 1 µM (cRAF): 0.1%; inhibition at 0.1 µM (AKT1): 0.8%; inhibition at 1 µM (AKT1): 1.6%; inhibition at 0.1 µM (ROS): 3.8%; inhibition at 1 µM (ROS): 3.7%; inhibition at 0.1 µM (CAMK1δ): 0.8%; inhibition at 1 µM (CAMK1δ): 0.9%
